From article PMC3510433, “Adamantyl carboxamides and acetamides as potent human 11β-hydroxysteroid dehydrogenase type 1 inhibitors” (Bioorganic & Medicinal Chemistry, 2012) come the findings set out here.

The structures appear in SMILES notation. Marks after values point to notes of the source that are not given here.

The target in one series is T1, human 11β-HSD1 (Homo sapiens, UniProt P28845).
T1 construct: expressed in transfected cells; host or cells: HEK-293 (human), stably transfected
Description: 11β-HSD1 inhibition, human HEK-293 cell based assay (SPA). As to conditions: for inhibition at 1 µM: HEK293, read-out: Percentage of inhibition measured at 1 μM; for 11β-HSD1 inhibitory activity (in words): at 1 μM where stated. The method, then: 11β-HSD1 inhibition was measured in intact human HEK-293 cells to reveal the true inhibitory activity. Differences in observed effects for different compounds may reflect combinatorial factors including the ability to penetrate the cell membrane, the stability within the cell and the binding ability to the enzyme.
The cell-based assays were conducted on the human HEK-293 cell line stably transfected with the HSD11B1 gene.[28] 11β-HSD1 activity was determined by measuring the amount of tritiated product formed using a scintillation proximity assay (SPA).
Cells were incubated in 96-well micro-plates in the presence of tritiated cortisone substrate and the assay plates contained internal high and low controls to allow calculation of percentage inhibition. Each well of a 96-well culture plate was seeded with human 11β-HSD1 overexpressed HEK293 cells in 100 μL medium. When the cells were 80% confluent, the medium was removed from each well then 100 μL of fresh, serum-free, medium containing ^3H-cortisone (22 nM) and test compound in 1% DMSO was added. The control wells were also dispensed. […] The plate was incubated at 37 °C for 2 h, after which 50 μL of medium was removed from each well and transferred to a microplate containing 100 μL of a pre-incubated mixture of anti-cortisol antibody and SPA bead. The mixture was incubated with gentle shaking until equilibrium was reached, before transferring to a scintillation counter to establish the enzyme activity in each sample.
The compounds were initially tested at a concentration of 1 μM. Those compounds showing over 70% inhibition of 11β-HSD1 at 1 μM were subjected to an IC50 measurement. A Merck compound 544 was used as the reference compound in the assay (IC50 = 50 ± 20 nM).[19] The IC50 values are reported as the mean value of 3 measurements with variance less than 20%. IC50 values were calculated from the dose-response curve using Microsoft Excel add-in XLfit with a Four Parameter Logistic nonlinear regression model.

The mark [1] stands for this setting: 1 μM, HEK-293 cells transfected with HSD11B1.
[2] abbreviates: HEK-293 cells stably transfected with HSD11B1, mean of 3 measurements.

T1 sequence (P28845 whole entry): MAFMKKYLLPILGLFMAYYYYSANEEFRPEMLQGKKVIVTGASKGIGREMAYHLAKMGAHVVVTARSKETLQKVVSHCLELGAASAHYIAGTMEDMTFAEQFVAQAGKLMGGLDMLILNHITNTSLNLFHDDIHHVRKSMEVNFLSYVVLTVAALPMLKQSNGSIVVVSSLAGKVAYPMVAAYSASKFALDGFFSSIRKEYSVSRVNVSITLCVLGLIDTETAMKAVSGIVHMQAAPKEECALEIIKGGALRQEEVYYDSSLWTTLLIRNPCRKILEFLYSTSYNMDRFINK

Broadly, the inhibition is how much of the control response was suppressed. Take `Cc1csc(CN(C)C(=O)C23CC4CC(CC(C4)C2)C3)n1` [Compound 19, N-Methyl-N-((4-methylthiazol-2-yl)-methyl)adamantane-1-carboxamide]: on human 11β-HSD1 (setting [1]), the inhibition at 1 µM was determined as 31%.

As a reminder, the IC50 is the concentration at which inhibition is half-maximal. At human 11β-HSD1 (setting [2]), `CN(Cc1ccco1)C(=O)C12CC3CC(CC(C3)C1)C2` [Compound 13] displayed an IC50 of 249 nM.

With `CN(Cc1cccs1)C(=O)C1(C)CCCCC1` [Compound 40, N,1-Dimethyl-N-(thiophen-2-ylmethyl)cyclohexanecarboxamide], the IC50 against human 11β-HSD1 (setting [2]) stood at 3600 nM.

In the case of `O=C(CC12CC3CC(CC(C3)C1)C2)NCc1ccccn1` [Compound 38, 2-(Adamantan-1-yl)-N-(pyridin-2-yl-methyl)acetamide], the “Percentage of inhibition measured at 1 μM” value at human 11β-HSD1 (setting [1]) worked out at 26% ^a.

The term melting point denotes the temperature, or range, at which the solid turns liquid. Molecule `O=C(NCCc1cccnc1)C12CC3CC(CC(C3)C1)C2` [Compound 32, N-(2-(Pyridin-3-yl)ethyl)adamant-ane-1-carboxamide] gave a melting point of 83 to 85 °C. Besides, the inhibition at 1 µM at human 11β-HSD1 (setting [1]) was 1%.

As for `CC(=O)Nc1cccc(CN(C)C(=O)C23CC4CC(CC(C4)C2)C3)c1` [Compound 21, N-(3-Acetamidobenzyl)-N-methyl-adamantane-1-carboxamide], the melting point was in the range of 109 to 111 °C. For the same molecule, at human 11β-HSD1 (setting [1]), the inhibition at 1 µM is 22%.

With `Cc1csc(CNC(=O)C23CC4CC(CC(C4)C2)C3)c1` [Compound 9, N-((4-Methylthiophen-2-yl)methyl)-adamantane-1-carboxamide], the melting point was in the range of 127 to 128.5 °C. For the same molecule, the inhibition at 1 µM on human 11β-HSD1 (setting [1]) was found to be 8%.

On to `O=C(CC12CC3CC(CC(C3)C1)C2)NCc1cccs1` [Compound 33, 2-(Adamantan-1-yl)-N-(thiophen-2-ylmeth-yl)acetamide], for which the melting point lay in the range of 117 to 119 °C. Moreover, on human 11β-HSD1 (setting [1]), the inhibition at 1 µM amounted to 66%.

With `Cn1cccc1CNC(=O)C12CC3CC(CC(C3)C1)C2` [Compound 16, N-((1-Methyl-1H-pyrrol-2-yl)meth-yl)-adamantane-1-carboxamide], the melting point lay in the range of 117 to 119 °C. In addition, at human 11β-HSD1 (setting [2]), the midpoint of inhibition, the IC50, lay at 1700 nM.

Molecule `Cn1cccc1CNC(=O)CC12CC3CC(CC(C3)C1)C2` [Compound 36, 2-(Adamantan-1-yl)-N-[(1-methyl-1H-pyrrol-2-yl)methyl]acetamide] showed a melting point of 92 to 95 °C. Also, on human 11β-HSD1 (setting [2]), the IC50 is 2880 nM.

For the molecule `CN(Cc1ccsc1)C(=O)C12CC3CC(CC(C3)C1)C2` [Compound 12], the IC50 at human 11β-HSD1 (setting [2]) amounted to 125 nM.

On human 11β-HSD1 (setting [2]), `O=C(NCc1cccs1)C12CC3CC(CC(C3)C1)C2` [Compound 5] showed an IC50 of 403 nM.

`CN(CCc1cccs1)C(=O)C12CC3CC(CC(C3)C1)C2` [Compound 28]: the IC50 against human 11β-HSD1 (setting [2]) is 448 nM.

As for `CN(Cc1ccnn1C)C(=O)C12CC3CC(CC(C3)C1)C2` [Compound 18, N-Methyl-N-((1-methyl-1H-pyrazol-5-yl)-methyl)adamantane-1-carboxamide], the melting point was in the range of 102 to 103.5 °C. In addition, the inhibition at 1 µM on human 11β-HSD1 (setting [1]) was determined as 34%.

For the molecule `CN(Cc1cccnc1)C(=O)CC12CC3CC(CC(C3)C1)C2` [Compound 37, 2-(Adamantan-1-yl)-N-methyl-N-(pyridin-3-ylmethyl)acetamide], the melting point fell in the range of 67 to 68.5 °C. Also, the inhibition at 1 µM on human 11β-HSD1 (setting [1]) turned out to be 67%.

As for `O=C(NCCc1ccccn1)C12CC3CC(CC(C3)C1)C2` [Compound 31, N-(2-(Pyridin-2-yl)ethyl)adamant-ane-1-carboxamide], the melting point lay within 76 to 79 °C. The IC50 on human 11β-HSD1 (setting [2]) came out at 379 nM.

As to `C1CCc2nnc(C34CC5CC(CC(C5)C3)C4)n2CC1` [Merck compound 544, reference compound], on human 11β-HSD1 (setting [2]), it took 50 ± 20 nM to reach half-maximal inhibition (IC50).

Consider `CN(Cc1cccs1)C(=O)C12CC3CC(CC1C3)C2` [Compound 39, N-Methyl-N-(thiophen-2-ylmethyl)-tRicyclo[3.3.1.0^(3,7)]nonane-3-carboxamide], for which the melting point lay in the range of 87 to 88.5 °C. This molecule also came in with a half-maximal inhibitory concentration (IC50) against human 11β-HSD1 (setting [2]) of 1080 nM.

In the case of `Cc1ccsc1CN(C)C(=O)C12CC3CC(CC(C3)C1)C2` [Compound 6, N-Methyl-N-((3-methylthiophen-2-yl)methyl)adamantane-1-carboxamide], the melting point fell in the range of 72 to 73.5 °C. This molecule also returned an IC50 against human 11β-HSD1 (setting [2]) of 275 nM. On human 11β-HSD1, the “11β-HSD1 inhibitory activity (in words)” value was “retains nearly the same activity as parent compound 3”.

With `O=C(NCc1ccco1)C12CC3CC(CC(C3)C1)C2` [Compound 14, N-(Furan-2-ylmethyl)adamantane-1-carboxamide], the melting point fell in the range of 69 to 72 °C. Also, the inhibition at 1 µM on human 11β-HSD1 (setting [1]) stood at 68%.

As to `Cc1cccc(CN(C)C(=O)C23CC4CC(CC(C4)C2)C3)n1` [Compound 27, N-Methyl-N-((6-methylpyridin-2-yl)-methyl)adamantane-1-carboxamide], the melting point fell in the range of 76 to 77.5 °C. Besides, on human 11β-HSD1 (setting [1]), the inhibition at 1 µM was determined as 48%.

For `CN(Cc1ccsc1)C(=O)CC12CC3CC(CC(C3)C1)C2` [Compound 34, 2-(Adamantan-1-yl)-N-methyl-N-(thio-phen-3-ylmethyl)acetamide], the melting point is 117 to 119 °C. Moreover, at human 11β-HSD1 (setting [2]), the IC50 came to 349 nM. The “fold reduction in potency compared to 12” value at human 11β-HSD1 (acetamide vs carboxamide 12) was “greater than 2 fold”.

In the case of `CN(Cc1cccs1)C(=O)C1(c2ccc(Cl)cc2)CC1` [Compound 42, 1-(4-Chlorophenyl)-N-methyl-N-(thio-phen-2-ylmethyl) cyclopropanecarbox-amide], the IC50 on human 11β-HSD1 (HEK-293 cells) was roughly 1600 nM; against human 11β-HSD1 (setting [2]) it was 1550 nM. Also, the “fold loss of activity in comparison with 41” value at human 11β-HSD1 (vs compound 41) is given as roughly 5.5 fold.

For the molecule `CN(Cc1cccnc1)C(=O)C12CC3CC(CC(C3)C1)C2` [Compound 24, N-Methyl-N-(pyridin-3-ylmethyl)-adamantane-1-carboxamide], the melting point is 57 to 59.5 °C. The inhibition at 1 µM at human 11β-HSD1 (setting [1]) was determined as 57%.

`CN(Cc1sccc1N)C(=O)C12CC3CC(CC(C3)C1)C2` [Compound 7, N-((3-Aminothiophen-2-yl)methyl)-N-methyladamantane-1-carboxamide] returned a melting point of 117 to 119 °C. Further, the inhibition at 1 µM at human 11β-HSD1 (setting [1]) was 12%. In addition, the “11β-HSD1 inhibitory activity (in words)” value at human 11β-HSD1 is on record as “sharp decrease of activity”.

In the case of `CN(CCc1ccccn1)C(=O)C12CC3CC(CC(C3)C1)C2` [Compound 30, N-Methyl-N-(2-(pyridin-2-yl)ethyl)-adamantane-1-carboxamide], the melting point fell in the range of 64 to 65 °C. The IC50 against human 11β-HSD1 (setting [2]) was found to be 165 nM.

In the case of `O=C(NCc1cccnc1)C12CC3CC(CC(C3)C1)C2` [Compound 25, N-(Pyridin-3-ylmethyl)adamantane-1-carboxamide], inhibition at human 11β-HSD1 (setting [2]) was half-maximal at 676 nM (IC50).

`CN(Cc1cccs1)C(=O)C1(c2ccc(Cl)cc2)CCCC1` [Compound 44, 1-(4-Chlorophenyl)-N-methyl-N-(thio-phen-2-ylmethyl)cyclopentanecarbox-amide]: the melting point is 58 to 60 °C. On human 11β-HSD1 (setting [2]), the IC50 worked out at 2200 nM.

Regarding `Cc1csc(CN(C)C(=O)C23CC4CC(CC(C4)C2)C3)c1` [Compound 8, N-Methyl-N-((4-methylthiophen-2-yl)-methyl)adamantane-1-carboxamide], the melting point lay in the range of 87 to 88 °C. On human 11β-HSD1 (setting [1]), the inhibition at 1 µM was 55%. Moreover, at human 11β-HSD1, the “11β-HSD1 inhibitory activity (in words)” value is reported as “weak inhibition”.

Take `O=C(NCCc1cccs1)C12CC3CC(CC(C3)C1)C2` [Compound 29]: the IC50 at human 11β-HSD1 (setting [2]) was 679 nM.

For `O=C(NCc1ccccn1)C12CC3CC(CC(C3)C1)C2` [Compound 26, N-(Pyridin-2-ylmethyl)adamantane-1-carboxamide], the melting point lay within 91 to 93.5 °C. The inhibition at 1 µM at human 11β-HSD1 (setting [1]) was found to be 45%.

`CN(Cc1ccc(Cl)s1)C(=O)C12CC3CC(CC(C3)C1)C2` [Compound 11, N-((5-Chlorothiophen-2-yl)methyl)-N-methyladamantane-1-carboxamide] gave a melting point of 92 to 94 °C. In addition, the inhibition at 1 µM at human 11β-HSD1 (setting [1]) is 29%. The “11β-HSD1 inhibitory activity (in words)” value on human 11β-HSD1 is “weak inhibition”.

For `CN(Cc1nccn1C)C(=O)C12CC3CC(CC(C3)C1)C2` [Compound 17, N-Methyl-N-((1-methyl-1H-imidazol-2-yl)methyl)adamantane-1-carboxamide], the melting point lay in the range of 175 to 176 °C. Also, the inhibition at 1 µM on human 11β-HSD1 (setting [1]) amounted to 24%.

Consider `Cc1ccc(CN(C)C(=O)C23CC4CC(CC(C4)C2)C3)s1` [Compound 10, N-Methyl-N-((5-methylthiophen-2-yl)-methyl)adamantane-1-carboxamide], for which the melting point lay within 83 to 85.5 °C. Further, the inhibition at 1 µM at human 11β-HSD1 (setting [1]) worked out at 32%. Moreover, the “11β-HSD1 inhibitory activity (in words)” value on human 11β-HSD1 is “weak inhibition”.

At human 11β-HSD1 (setting [2]), `CN(Cc1cccs1)C(=O)C1(c2ccc(Cl)cc2)CCC1` [Compound 43, 1-(4-Chlorophenyl)-N-methyl-N-(thio-phen-2-ylmethyl)cyclobutanecarbox-amide] had an IC50 of 385 nM.
